For nine compounds, IC50 results are on record in patent publication US8933113B2 (Merck Sharp & Dohme Corp., priority 2011, dated 2015).

Bounds are passed on as bounds.

The experiment deals with T1, full-length human Mineralocorticoid Receptor (MR) (Homo sapiens, UniProt P08235).
T1 construct: host or cells: PathHunter CHO-K1 cells
T1 sequence (P08235 1-984): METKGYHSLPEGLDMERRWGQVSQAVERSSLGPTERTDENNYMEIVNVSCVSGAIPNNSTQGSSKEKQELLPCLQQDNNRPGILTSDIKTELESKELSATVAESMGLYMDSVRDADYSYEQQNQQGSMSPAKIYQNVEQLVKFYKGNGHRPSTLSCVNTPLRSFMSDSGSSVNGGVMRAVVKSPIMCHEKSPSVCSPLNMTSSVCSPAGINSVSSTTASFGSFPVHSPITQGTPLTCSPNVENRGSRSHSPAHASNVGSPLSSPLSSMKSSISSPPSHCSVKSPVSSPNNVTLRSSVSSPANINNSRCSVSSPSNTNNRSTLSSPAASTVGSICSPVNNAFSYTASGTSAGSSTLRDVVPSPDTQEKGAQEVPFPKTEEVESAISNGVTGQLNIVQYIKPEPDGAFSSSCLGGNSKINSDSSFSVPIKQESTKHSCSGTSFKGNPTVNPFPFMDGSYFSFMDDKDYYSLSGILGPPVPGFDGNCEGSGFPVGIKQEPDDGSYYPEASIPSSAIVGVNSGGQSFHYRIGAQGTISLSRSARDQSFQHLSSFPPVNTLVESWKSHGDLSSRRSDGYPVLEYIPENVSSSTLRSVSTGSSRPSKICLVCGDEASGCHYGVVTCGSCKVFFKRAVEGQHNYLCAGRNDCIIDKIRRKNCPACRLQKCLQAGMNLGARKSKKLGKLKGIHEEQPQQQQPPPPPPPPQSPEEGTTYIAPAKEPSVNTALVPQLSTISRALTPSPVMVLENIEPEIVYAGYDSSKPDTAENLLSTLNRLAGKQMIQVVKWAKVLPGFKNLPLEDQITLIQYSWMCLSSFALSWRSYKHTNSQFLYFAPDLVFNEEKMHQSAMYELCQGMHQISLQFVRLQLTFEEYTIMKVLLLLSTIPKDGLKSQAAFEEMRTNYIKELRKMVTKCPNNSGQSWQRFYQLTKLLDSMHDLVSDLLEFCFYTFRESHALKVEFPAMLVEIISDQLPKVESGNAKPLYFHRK
Briefly: human MR NH Pro assay (PathHunter Protein:Protein interaction assay), MR antagonist activity. The format is cell-based. Conditions: PathHunter CHO-K1 cells overexpressing human MR; aldosterone about 0.3 nM; 6 hours at 37° C.; luminescence; read-out: Primary Assay IP rating (IP = inflection point for a given dose-response titration curve). The gist of the method: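 PathHunter enzyme-complementation assay in cells of full-length human MR recruitment of a coactivator peptide, run in antagonist mode against aldosterone at about 0.3 to 1.0 nM final. Compounds are in a 10-point, 1:3 series from a 4.4 mM top. Incubation is 6 h at 37° C, then detection reagent for 1 h at RT, with a luminescence read-out.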
With `CCC(c1ccc(Cl)cc1)(n1ccc2c(NS(C)(=O)=O)cccc21)C(C)(C)O` (single isomer, unassigned) [Compound 91, N-(1-(3-(4-chlorophenyl)-2-hydroxy-2-methylpentan-3-yl)-1H-indol-4-yl)methane sulfonamide], the IC50 was less than 100 nM.

With `CC[C@@](c1ccc(Cl)cc1)(c1nnc(C(F)(F)F)[nH]1)n1ccc2c(NS(C)(=O)=O)cccc21` [Compound 66, (R)—N-(1-{1-(4-chlorophenyl)-1-[5-(trifluoromethyl)-4H-1,2,4-triazol-3-yl]propyl}-1H-indol-4-yl)methanesulfonamide], the IC50 was in the range of 100 to 500 nM.

Consider `CCC(C#N)(c1ccc(Cl)cc1)n1ccc2c(NS(=O)(=O)CC)cccc21` (stereo not drawn) [Compound 178, N-(1-(1-(4-chlorophenyl)-1-cyanopropyl)-1H-indol-4-yl)ethanesulfonamide], for which the IC50 is 100 to 500 nM.

For the compound `CCC(C#CC#N)(c1ccc(Cl)cc1)n1ccc2c(NS(C)(=O)=O)cccc21` (single isomer, unassigned) [Compound 155, N-(1-(3-(4-chlorophenyl)-1-cyanopent-1-yn-3-yl)-1H-indol-4-yl)methanesulfonamide], the IC50 was less than 100 nM.

`CCC(C(=O)NCC#N)(c1ccc(Cl)cc1)n1ccc2c(NS(C)(=O)=O)cccc21` (stereo not drawn) [Compound 51, 2-(4-chlorophenyl)-N-(cyanomethyl)-2-{4-[(methylsulfonyl)amino]-1H-indol-1-yl}butanamide]: the IC50 was less than 100 nM.

Consider `CC(C)(C)OC(=O)C(CC#N)(c1ccc(Cl)cc1)n1ccc2c(NS(C)(=O)=O)cccc21` (stereo not drawn) [Compound 27, tert-Butyl 2-(4-chlorophenyl)-3-cyano-2-{4-[(methylsulfonyl)amino]-1H-indol-1-yl}propanoate], for which the IC50 fell in the range of 100 to 500 nM.

In the case of `CCC(c1ccc(Cl)cc1)(c1nnc(-c2ccc(OC)cc2)o1)n1ccc2c(NS(C)(=O)=O)cccc21` (stereo not drawn) [Compound 74, N-(1-{1-(4-chlorophenyl)-1-[5-(4-methoxyphenyl)-1,3,4-oxadiazol-2-yl]propyl}-1H-indol-4-yl)methanesulfonamide], the IC50 is 100 to 500 nM.

Take `CCC(C(C)=O)(c1ccc(Cl)cc1)n1ncc2c(NS(C)(=O)=O)cccc21` (single isomer, unassigned) [Compound 101, N-(1-(3-(4-chlorophenyl)-2-oxopentan-3-yl)-1H-indazol-4-yl)methanesulfonamide]: the IC50 was 100 to 500 nM.

As for `CCC(CCC#N)(c1ccccc1)n1ncc2c(NS(C)(=O)=O)cc(F)cc21` (stereo not drawn) [Compound 144, N-(1-(1-cyano-3-phenylpentan-3-yl)-6-fluoro-1H-indazol-4-yl)methanesulfonamide], the IC50 was less than 100 nM.
